Test results published in ChEMBL document CHEMBL4052689, “Discovery and optimization of 3-(4-aryl/heteroarylsulfonyl)piperazin-1-yl)-6-(piperidin-1-yl)pyridazines as novel, CNS penetrant pan-muscarinic antagonists” (Bioorg Med Chem Lett, 2017).
Calls of active or inactive are those of the source. The rule behind the calls is not given here.

Assays:
[1] = Unbound brain-to-plasma concentration ratio in rat dosed as cassette dosing; format: ADME, organism-based
[2] = Brain to plasma permeability coefficient in rat dosed as cassette dosing; format: ADME, organism-based
Brain = assay: Protein binding in rat brain homogenate assessed as unbound fraction; format: ADME, tissue-based
Plasma [3] = assay: Protein binding in rat plasma assessed as unbound fraction; format: ADME, cell-free
Plasma [4] = assay: Protein binding in human plasma assessed as unbound fraction; format: ADME, cell-free
[5] = biological target: T1, Muscarinic acetylcholine receptor M4 (Homo sapiens, UniProt P08173); assay: Displacement of [3H]NMS from human recombinant muscarinic M4 receptor expressed in CHO cell membranes
T1 sequence (P08173 whole entry): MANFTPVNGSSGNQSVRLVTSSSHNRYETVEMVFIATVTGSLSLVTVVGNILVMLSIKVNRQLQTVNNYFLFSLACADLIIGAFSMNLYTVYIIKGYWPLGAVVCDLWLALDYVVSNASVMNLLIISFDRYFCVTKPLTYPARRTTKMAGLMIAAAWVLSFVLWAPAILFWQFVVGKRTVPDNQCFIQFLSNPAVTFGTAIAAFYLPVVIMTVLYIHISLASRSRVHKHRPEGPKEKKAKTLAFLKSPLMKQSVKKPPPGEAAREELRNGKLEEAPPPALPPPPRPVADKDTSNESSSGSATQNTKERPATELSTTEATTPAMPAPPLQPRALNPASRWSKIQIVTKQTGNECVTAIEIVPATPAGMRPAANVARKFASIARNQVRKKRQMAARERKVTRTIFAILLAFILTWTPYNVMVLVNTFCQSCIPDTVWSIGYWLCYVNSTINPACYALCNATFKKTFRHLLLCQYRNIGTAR

[6] = biological target: Muscarinic acetylcholine receptor M5 (Rattus norvegicus) (UniProt P08911); assay: Antagonist activity at rat muscarinic M5 receptor assessed as acetylcholine-induced response by calcium mobilization assay; format: functional; design: Activity: scale not given: the % may be the effect or the level left
[7] = biological target: Muscarinic acetylcholine receptor M4 (Rattus norvegicus) (UniProt P08485); assay: (§1) Antagonist activity at rat muscarinic M4 receptor by calcium mobilization assay; format: functional
[8] = biological target: Muscarinic acetylcholine receptor M3 (Rattus norvegicus) (UniProt P08483); assay: (§2) Antagonist activity at rat muscarinic M3 receptor by calcium mobilization assay; format: functional
[9] = biological target: Muscarinic acetylcholine receptor M2 (Rattus norvegicus) (UniProt P10980); assay: (§3) Antagonist activity at rat muscarinic M2 receptor by calcium mobilization assay; format: functional
[10] = biological target: Muscarinic acetylcholine receptor M1 (Rattus norvegicus) (UniProt P08482); assay: (§4) Antagonist activity at rat muscarinic M1 receptor by calcium mobilization assay; format: functional
[11] = biological target: T2, Muscarinic acetylcholine receptor M3 (Homo sapiens, UniProt P20309); assay: Antagonist activity at human recombinant muscarinic M3 receptor expressed in CHO cells co-transfected with Gqi5 in presence of EC80 acetylcholine by calcium mobilization assay; format: functional, cell-based
Target sequence in this assay (P20309 whole entry): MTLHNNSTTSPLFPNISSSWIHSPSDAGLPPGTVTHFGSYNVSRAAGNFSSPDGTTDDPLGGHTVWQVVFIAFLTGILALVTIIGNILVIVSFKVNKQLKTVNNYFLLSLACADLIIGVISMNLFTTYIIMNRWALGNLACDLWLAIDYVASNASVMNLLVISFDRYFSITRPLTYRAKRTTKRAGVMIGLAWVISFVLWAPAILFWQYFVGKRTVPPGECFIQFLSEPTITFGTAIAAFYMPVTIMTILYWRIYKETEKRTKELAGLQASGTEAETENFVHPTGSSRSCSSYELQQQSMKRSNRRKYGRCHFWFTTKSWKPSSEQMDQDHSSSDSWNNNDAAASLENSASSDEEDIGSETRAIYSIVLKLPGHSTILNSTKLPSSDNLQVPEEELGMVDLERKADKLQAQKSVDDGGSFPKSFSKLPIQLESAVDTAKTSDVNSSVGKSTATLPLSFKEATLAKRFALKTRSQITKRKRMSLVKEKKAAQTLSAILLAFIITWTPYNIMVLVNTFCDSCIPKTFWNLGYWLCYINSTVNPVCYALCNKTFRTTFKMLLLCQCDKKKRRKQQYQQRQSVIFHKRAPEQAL

[12] = biological target: Muscarinic acetylcholine receptor M2 (Homo sapiens) (UniProt P08172); assay: Antagonist activity at human recombinant muscarinic M2 receptor expressed in CHO cells co-transfected with Gqi5 assessed as acetylcholine-induced response in presence of EC80 acetylcholine by calcium mobilization assay relative to untreated control; format: functional, cell-based; design: scale not given: the % may be the effect or the level left
[13] = biological target: Muscarinic acetylcholine receptor M2 (Homo sapiens, UniProt P08172); assay: Antagonist activity at human recombinant muscarinic M2 receptor expressed in CHO cells co-transfected with Gqi5 in presence of EC80 acetylcholine by calcium mobilization assay; format: functional, cell-based
[14] = biological target: Muscarinic acetylcholine receptor M1 (Homo sapiens) (UniProt P11229); assay: Antagonist activity at human recombinant muscarinic M1 receptor expressed in CHO cells co-transfected with Gqi5 assessed as acetylcholine-induced response in presence of EC80 acetylcholine by calcium mobilization assay relative to untreated control; format: functional, cell-based; design: scale not given: the % may be the effect or the level left
[15] = biological target: Muscarinic acetylcholine receptor M1 (Homo sapiens, UniProt P11229); assay: Antagonist activity at human recombinant muscarinic M1 receptor expressed in CHO cells co-transfected with Gqi5 in presence of EC80 acetylcholine by calcium mobilization assay; format: functional, cell-based
[16] = biological target: T3, Muscarinic acetylcholine receptor M4 (Homo sapiens) (UniProt P08173); assay: Antagonist activity at human recombinant muscarinic M4 receptor expressed in CHO cells co-transfected with Gqi5 assessed as acetylcholine-induced response in presence of EC80 acetylcholine by calcium mobilization assay relative to untreated control; format: functional, cell-based; design: scale not given: the % may be the effect or the level left
T3 sequence (whole entry): T1 sequence (P08173 whole entry)

[17] = biological target: T1, Muscarinic acetylcholine receptor M4; assay: Antagonist activity at human recombinant muscarinic M4 receptor expressed in CHO cells co-transfected with Gqi5 in presence of EC80 acetylcholine by calcium mobilization assay; format: functional, cell-based
[18] = biological target: Muscarinic acetylcholine receptor M5 (Homo sapiens, UniProt P08912); assay: Antagonist activity at human recombinant muscarinic M5 receptor expressed in CHO cells co-transfected with Gqi5 in presence of EC80 acetylcholine by calcium mobilization assay; format: functional, cell-based
[19] = biological target: Muscarinic acetylcholine receptor M5 (Homo sapiens) (UniProt P08912); assay: Antagonist activity at human recombinant muscarinic M5 receptor expressed in CHO cells co-transfected with Gqi5 assessed as acetylcholine-induced response in presence of EC80 acetylcholine by calcium mobilization assay relative to untreated control; format: functional, cell-based; design: scale not given: the % may be the effect or the level left
[20] = biological target: T2, Muscarinic acetylcholine receptor M3; assay: Antagonist activity at human recombinant muscarinic M3 receptor expressed in CHO cells assessed as acetylcholine-induced response in presence of EC80 acetylcholine by calcium mobilization assay relative to untreated control; design: scale not given: the % may be the effect or the level left
Target sequence in this assay (P20309 whole entry, looked up): as the sequence (P20309 whole entry) above

Liver [21] = assay: Drug metabolism in rat liver microsomes assessed as metabolite F formation in presence of NADPH by UV and mass spectrometry; format: ADME, microsome
Liver [22] = assay: Drug metabolism in human liver microsomes assessed as metabolite H formation in presence of NADPH by UV and mass spectrometry; format: ADME, microsome
Liver [23] = assay: Drug metabolism in human liver microsomes assessed as metabolite G formation in presence of NADPH by UV and mass spectrometry; format: ADME, microsome
Liver [24] = assay: Drug metabolism in human liver microsomes assessed as metabolite E formation in presence of NADPH by UV and mass spectrometry; format: ADME, microsome
Liver [25] = assay: Drug metabolism in human liver microsomes assessed as metabolite D formation in presence of NADPH by UV and mass spectrometry; format: ADME, microsome
Liver [26] = assay: Drug metabolism in human liver microsomes assessed as metabolite C formation in presence of NADPH by UV and mass spectrometry; format: ADME, microsome
Liver [27] = assay: Drug metabolism in human liver microsomes assessed as metabolite A formation in presence of NADPH by UV and mass spectrometry; format: ADME, microsome
Liver [28] = assay: Drug metabolism in human liver microsomes assessed as metabolite B formation in presence of NADPH by UV and mass spectrometry; format: ADME, microsome
Liver [29] = assay: Drug metabolism in human liver microsomes in absence of NADPH by UV and mass spectrometry; format: ADME, microsome
Liver [30] = assay: Drug metabolism in rat liver microsomes in absence of NADPH by UV and mass spectrometry; format: ADME, microsome
Liver [31] = assay: Drug metabolism in human liver microsomes assessed as metabolite F formation in presence of NADPH by UV and mass spectrometry; format: ADME, microsome
Plasma [32] = assay: Protein binding in human plasma; format: ADME, cell-free
Plasma [33] = assay: Protein binding in rat plasma; format: ADME, cell-free
[34] = biological target: Muscarinic acetylcholine receptor M5 (Rattus norvegicus, UniProt P08911); assay: Antagonist activity at rat muscarinic M5 receptor by calcium mobilization assay; format: functional
[35] = biological target: Muscarinic acetylcholine receptor M4 (Rattus norvegicus) (UniProt P08485); assay: Antagonist activity at rat muscarinic M4 receptor assessed as acetylcholine-induced response by calcium mobilization assay; format: functional; design: scale not given: the % may be the effect or the level left
[36] = biological target: Muscarinic acetylcholine receptor M3 (Rattus norvegicus) (UniProt P08483); assay: Antagonist activity at rat muscarinic M3 receptor assessed as acetylcholine-induced response by calcium mobilization assay; format: functional; design: scale not given: the % may be the effect or the level left
[37] = biological target: Muscarinic acetylcholine receptor M4 (Rattus norvegicus, UniProt P08485); assay: as §1; format: functional
[38] = biological target: Muscarinic acetylcholine receptor M3 (Rattus norvegicus, UniProt P08483); assay: as §2; format: functional
[39] = biological target: Muscarinic acetylcholine receptor M2 (Rattus norvegicus, UniProt P10980); assay: as §3; format: functional
[40] = biological target: Muscarinic acetylcholine receptor M2 (Rattus norvegicus) (UniProt P10980); assay: Antagonist activity at rat muscarinic M2 receptor assessed as acetylcholine-induced response by calcium mobilization assay; format: functional; design: scale not given: the % may be the effect or the level left
[41] = biological target: Muscarinic acetylcholine receptor M1 (Rattus norvegicus) (UniProt P08482); assay: Antagonist activity at rat muscarinic M1 receptor assessed as acetylcholine-induced response by calcium mobilization assay; format: functional; design: scale not given: the % may be the effect or the level left
[42] = biological target: Muscarinic acetylcholine receptor M1 (Rattus norvegicus, UniProt P08482); assay: as §4; format: functional
[43] = biological target: Muscarinic acetylcholine receptor M2 and M4 (Homo sapiens) (UniProt P08173+P08172); assay: Selectivity index, ratio of IC50 for human recombinant muscarinic M2 receptor to IC50 for human recombinant muscarinic M4 receptor
Homo sapiens [44] = species: Homo sapiens; assay: Selectivity index, ratio of IC50 for human recombinant muscarinic M3 receptor to IC50 for human recombinant muscarinic M4 receptor
Homo sapiens [45] = species: Homo sapiens; assay: Selectivity index, ratio of IC50 for human recombinant muscarinic M5 receptor to IC50 for human recombinant muscarinic M4 receptor
Homo sapiens [46] = species: Homo sapiens; assay: Selectivity index, ratio of IC50 for human recombinant muscarinic M1 receptor to IC50 for human recombinant muscarinic M4 receptor

Sequence of Muscarinic acetylcholine receptor M5 (Rattus norvegicus) (P08911 whole entry): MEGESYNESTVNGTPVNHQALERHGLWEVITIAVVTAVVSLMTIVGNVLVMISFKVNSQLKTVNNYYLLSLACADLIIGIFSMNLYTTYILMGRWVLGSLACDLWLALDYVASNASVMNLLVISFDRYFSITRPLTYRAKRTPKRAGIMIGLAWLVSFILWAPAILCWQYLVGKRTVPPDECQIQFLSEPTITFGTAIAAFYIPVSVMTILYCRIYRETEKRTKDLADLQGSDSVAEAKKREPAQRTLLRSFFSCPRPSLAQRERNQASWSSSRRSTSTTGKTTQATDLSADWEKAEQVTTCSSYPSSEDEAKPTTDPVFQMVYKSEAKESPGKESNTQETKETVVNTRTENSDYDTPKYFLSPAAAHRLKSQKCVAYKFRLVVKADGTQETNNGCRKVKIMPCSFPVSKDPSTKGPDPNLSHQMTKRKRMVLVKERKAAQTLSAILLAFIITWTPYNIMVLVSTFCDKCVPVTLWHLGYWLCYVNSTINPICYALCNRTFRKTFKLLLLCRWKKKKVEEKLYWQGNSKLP
Sequence of Muscarinic acetylcholine receptor M2 (Homo sapiens, UniProt P08172) (P08172 whole entry): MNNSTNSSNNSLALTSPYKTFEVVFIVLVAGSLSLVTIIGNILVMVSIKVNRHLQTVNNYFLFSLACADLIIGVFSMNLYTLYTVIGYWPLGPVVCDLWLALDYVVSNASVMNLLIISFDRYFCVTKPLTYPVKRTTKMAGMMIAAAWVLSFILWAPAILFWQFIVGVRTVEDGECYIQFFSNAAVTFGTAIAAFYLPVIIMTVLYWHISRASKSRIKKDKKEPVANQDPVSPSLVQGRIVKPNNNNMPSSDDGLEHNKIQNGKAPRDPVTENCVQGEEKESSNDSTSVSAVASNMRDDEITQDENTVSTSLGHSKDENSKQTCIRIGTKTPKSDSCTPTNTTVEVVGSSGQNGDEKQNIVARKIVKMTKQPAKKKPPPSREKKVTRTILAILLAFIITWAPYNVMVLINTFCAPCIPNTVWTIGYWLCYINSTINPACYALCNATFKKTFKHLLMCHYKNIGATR
Sequence of Muscarinic acetylcholine receptor M2 (Homo sapiens) (P08172 whole entry): as above
Sequence of Muscarinic acetylcholine receptor M5 (Homo sapiens) (P08912 whole entry): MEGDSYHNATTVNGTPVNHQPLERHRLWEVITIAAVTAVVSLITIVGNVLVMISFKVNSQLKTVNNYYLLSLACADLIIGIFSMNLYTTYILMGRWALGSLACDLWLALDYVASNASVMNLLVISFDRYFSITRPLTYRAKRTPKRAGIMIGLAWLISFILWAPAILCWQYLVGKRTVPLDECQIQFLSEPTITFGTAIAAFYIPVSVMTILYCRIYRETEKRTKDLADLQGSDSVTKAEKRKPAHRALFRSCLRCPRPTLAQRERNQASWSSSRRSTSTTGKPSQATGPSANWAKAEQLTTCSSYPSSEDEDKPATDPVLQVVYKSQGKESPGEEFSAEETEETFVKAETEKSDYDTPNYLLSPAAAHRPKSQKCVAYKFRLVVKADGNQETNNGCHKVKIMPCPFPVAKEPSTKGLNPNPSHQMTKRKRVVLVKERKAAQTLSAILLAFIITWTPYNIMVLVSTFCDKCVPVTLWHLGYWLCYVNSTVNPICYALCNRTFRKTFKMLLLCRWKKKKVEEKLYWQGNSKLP
Sequence of Muscarinic acetylcholine receptor M5 (Homo sapiens, UniProt P08912) (P08912 whole entry): as above
Sequence of Muscarinic acetylcholine receptor M4 (Rattus norvegicus) (P08485 whole entry): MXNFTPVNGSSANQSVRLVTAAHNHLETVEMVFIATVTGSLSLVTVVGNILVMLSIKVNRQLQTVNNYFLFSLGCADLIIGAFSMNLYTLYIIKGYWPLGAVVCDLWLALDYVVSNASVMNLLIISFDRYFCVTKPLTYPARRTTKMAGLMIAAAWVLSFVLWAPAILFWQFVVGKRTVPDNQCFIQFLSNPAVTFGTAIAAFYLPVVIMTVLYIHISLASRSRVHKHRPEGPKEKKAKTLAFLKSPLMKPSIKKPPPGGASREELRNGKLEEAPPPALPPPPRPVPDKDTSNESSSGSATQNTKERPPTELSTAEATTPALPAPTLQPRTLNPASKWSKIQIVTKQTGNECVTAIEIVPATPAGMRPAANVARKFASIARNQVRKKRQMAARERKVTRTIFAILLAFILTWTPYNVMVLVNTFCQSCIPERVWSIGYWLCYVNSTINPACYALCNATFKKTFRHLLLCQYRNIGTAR
Sequence of Muscarinic acetylcholine receptor M3 (Rattus norvegicus) (P08483 whole entry, looked up): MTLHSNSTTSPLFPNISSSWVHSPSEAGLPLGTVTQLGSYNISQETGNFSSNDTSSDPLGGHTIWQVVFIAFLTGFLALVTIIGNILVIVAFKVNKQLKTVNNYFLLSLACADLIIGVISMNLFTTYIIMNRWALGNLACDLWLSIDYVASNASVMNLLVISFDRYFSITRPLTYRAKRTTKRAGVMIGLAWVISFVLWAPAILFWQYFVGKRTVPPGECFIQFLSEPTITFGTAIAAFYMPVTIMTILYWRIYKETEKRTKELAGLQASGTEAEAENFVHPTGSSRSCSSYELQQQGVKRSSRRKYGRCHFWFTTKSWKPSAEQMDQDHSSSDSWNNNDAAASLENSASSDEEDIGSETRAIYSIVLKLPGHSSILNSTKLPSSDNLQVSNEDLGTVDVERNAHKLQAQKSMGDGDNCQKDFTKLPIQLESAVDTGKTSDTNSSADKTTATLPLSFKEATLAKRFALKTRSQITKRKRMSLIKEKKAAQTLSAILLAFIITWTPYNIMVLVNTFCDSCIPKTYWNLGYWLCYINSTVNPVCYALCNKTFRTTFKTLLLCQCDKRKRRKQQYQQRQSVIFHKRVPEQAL

Cc1noc(C)c1S(=O)(=O)N1CCN(c2ccc(N3CCCC(C)(C)C3)nn2)CC1
K(p,uu,brain) [1]: 1.1 | Kp [2]: 2.1 | Fu (Brain): 0.04 | Fu (Plasma [3]): 0.07 | Fu (Plasma [4]): 0.08 | Ki [5]: 7.78 nM | inhibition [6]: Active | inhibition [7]: Active | inhibition [8]: Active | inhibition [9]: Active | inhibition [10]: Active | IC50 [11]: 782 nM | Activity [12]: 17% | IC50 [13]: 352 nM | Activity [14]: 11% | IC50 [15]: 288 nM | Activity [16]: 12% | IC50 ([17]; read-out: IC50): 120 nM | IC50 ([17]; read-out: pIC50 (converted)): 110 nM | IC50 [18]: 1030 nM | Activity [19]: 43% | Activity [20]: 55%

C[C@H]1CCCCN1c1ccc(N2CCN(S(=O)(=O)c3ccccc3Cl)CC2)nn1
Drug metabolism (Liver [21]): Metabolite_Detected | Drug metabolism (Liver [22]): Metabolite_Detected | Drug metabolism (Liver [23]): Metabolite_Detected | Drug metabolism (Liver [24]): Metabolite_Detected | Drug metabolism (Liver [25]): Metabolite_Detected | Drug metabolism (Liver [26]): Metabolite_Detected | Drug metabolism (Liver [27]): Metabolite_Detected | Drug metabolism (Liver [28]): Metabolite_Detected | Drug metabolism (Liver [29]): Metabolite_Notdetected | Drug metabolism (Liver [30]): Metabolite_Notdetected | Drug metabolism (Liver [31]): Metabolite_Detected | PPB (Plasma [32]): Active | PPB (Plasma [33]): Active | Activity [6]: 37% | IC50 [34]: > 10000 nM | Activity [35]: 4.8% | Activity [36]: 40% | IC50 [37]: 1000 nM | IC50 [38]: > 10000 nM | IC50 [39]: 5900 nM | Activity [40]: 7.1% | Activity [41]: 2.6% | IC50 [42]: 1400 nM | Ratio IC50 [43]: 2.7 to 16 | Ratio IC50 (Homo sapiens [44]): 2.7 to 16 | Ratio IC50 (Homo sapiens [45]): 2.7 to 16 | Ratio IC50 (Homo sapiens [46]): 2.7 to 16 | IC50 [11]: 7000 nM | Activity [12]: 2.9% | IC50 [13]: 1200 nM | Activity [14]: 2.8% | IC50 [15]: 1300 nM | Activity [16]: 4% | IC50 ([17]; read-out: IC50): 440 nM | IC50 ([17]; read-out: pIC50 (converted)): 427 nM | IC50 [18]: 6500 nM | Activity [19]: 3.1% | Activity [20]: 4.3%
